Test results: patent publication US20260365670A1, “EGFR INHIBITORS AND USES THEREOF” (DIZAL (JIANGSU) PHARMACEUTICAL CO., LTD., priority 2022, published 2026)
Where two headings read alike, the source gives them in different places.

What was measured:
[1] = target: T1, EGFR (d746-750 C797S) (Homo sapiens, UniProt P00533, C797S/DEL746-750); assay: Inhibition of EGFR (d746-750 C797S) biochemical enzymatic activity (HTRF); conditions: EGFR Del19-C797S, 1 mM ATP, 1 h, room temperature, read-out: IC50 (nM) @Del19-C797S
T1 construct: purchased signalchem
Outline: (§1)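 Phosphorylation of TK Substrate-biotin (1 μM) was measured at 1 mM ATP over a 1 h room-temperature incubation with serially varied compound. Detection was by HTRF ratio and analysis by 4PL fit to IC50.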

[2] = target: T2, EGFR L858R/T790M (Homo sapiens, UniProt P00533, L858R/T790M); assay: Inhibition of EGFR L858R/T790M biochemical enzymatic activity (HTRF); conditions: EGFR L858R-T790M, 1 mM ATP, 1 h, room temperature, read-out: IC50 (nM) @L858R-T790M
T2 construct: purchased Carna Bio
Outline: as §1

[3] = target: T3, EGFR[T790M/C797S/L858R] (Homo sapiens, UniProt P00533, C797S/L858R/T790M); assay: Inhibition of EGFR[T790M/C797S/L858R] biochemical enzymatic activity (HTRF); conditions: EGFR T790M-C797S-L858R, 1 mM ATP, 1 h, room temperature, read-out: IC50 (nM) @T790M- C797S - L858R
T3 construct: purchased Carna Bio
Outline: as §1

[4] = target: T4, EGFR L858R (Homo sapiens, UniProt P00533, L858R); assay: Inhibition of EGFR L858R biochemical enzymatic activity (HTRF); conditions: 1 mM ATP, 1 h, room temperature, read-out: IC50 (nM) @L858R
T4 construct: purchased Carna Bio
Outline: as §1

[5] = test system: A-431; assay: Cell proliferation GI50, A-431 cells (Table 6); format: cell-based
[6] = target: T5, EGFR wild type (Homo sapiens, UniProt P00533); assay: Inhibition of EGFR wild type biochemical enzymatic activity (HTRF); conditions: EGFR WT, 1 mM ATP, 1 h, room temperature, read-out: IC50 (nM) @WT
T5 construct: purchased Carna Bio
Outline: as §1

[7] = target: T6, EGFR Exon19Del/T790M (Homo sapiens, UniProt P00533, DEL746-750/T790M); assay: Inhibition of EGFR Exon19Del/T790M biochemical enzymatic activity (HTRF); conditions: EGFR Del19-T790M, 1 mM ATP, 1 h, room temperature, read-out: IC50 (nM) @Del19-T790M
T6 construct: purchased Carna Bio
Outline: as §1

[8] = test system: PC-9; assay: Cell proliferation assay, PC-9 cells (CellTiter-Glo, 72 hours); format: cell-based; conditions: PC9 cells, CellTiter-Glo, read-out: PC9 GI50
Outline: (§2)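 GI50 is the concentration giving 50% proliferation inhibition. Growth for this was normalised to a baseline viability reading taken when compound was added, and to DMSO wells. PC-9 (500 cells/well) and mutant-EGFR Ba/F3 (5000 cells/well) are treated after overnight seeding in RPMI1640-based medium.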

[9] = target: T7, EGFR Exon19Del (Homo sapiens, UniProt P00533, DEL746-750); assay: Inhibition of EGFR Exon19Del biochemical enzymatic activity (HTRF); conditions: EGFR Del19, 1 mM ATP, 1 h, room temperature, read-out: IC50 @Del19
T7 construct: purchased Carna Bio
Outline: as §1

[10] = test system: Ba/F3 cells expressing EGFR mutations; assay: Cell proliferation assay, Ba/F3 cells expressing EGFR mutations (CellTiter-Glo, 72 hours); format: cell-based; conditions: CellTiter-Glo
Outline: as §2

[11] = target: T8, EGFR (C797S L858R) (Homo sapiens, UniProt P00533, C797S/L858R); assay: Inhibition of EGFR (C797S L858R) biochemical enzymatic activity (HTRF); conditions: EGFR L858-C797S, 1 mM ATP, 1 h, room temperature, read-out: IC50 (nM) @L858-C797S
T8 construct: purchased signalchem
Outline: as §1

[12] = target: T9, EGFR[T790M/C797S/d746-750] (Homo sapiens, UniProt P00533, C797S/DEL746-750/T790M); assay: Inhibition of EGFR[T790M/C797S/d746-750] biochemical enzymatic activity (HTRF); conditions: EGFR T790M-C797S-Del19, 1 mM ATP, 1 h, room temperature, read-out: IC50 (nM) @T790M - C797S - Del19
T9 construct: purchased Carna Bio
Outline: as §1

[13] = Homo sapiens, A-431, A-431 cells
[14] = Mus musculus, BaF3, 72 h, BaF3 cells, EGFR DEL19-C797S, read-out: DEL19-C797S/BaF3 GI50
[15] = Mus musculus, BaF3, 72 h, BaF3 cells, EGFR DEL19-T790-C797S, read-out: DEL19-T790-C797S/BaF3 GI50
[16] = Mus musculus, BaF3, 72 h, BaF3 cells, EGFR L858R, read-out: L858R/BaF3 GI50
[17] = Mus musculus, BaF3, 72 h, BaF3 cells, EGFR L858R-C797S, read-out: L858R-C797S/BaF3 GI50
[18] = Mus musculus, BaF3, 72 h, BaF3 cells, EGFR L858R-T790-C797S, read-out: L858R-T790-C797S/BaF3 GI50
[19] = Mus musculus, BaF3, 72 h, BaF3 cells, EGFR L858R-T790M, read-out: L858R-T790M/BaF3 GI50
[20] = Mus musculus, BaF3, 72 h, EGFR DEL19-T790M, read-out: DEL19-T790M GI50
[21] = BaF3 cells, EGFR DEL19-C797S, read-out: DEL19-C797S/BaF3 GI50
[22] = BaF3 cells, EGFR DEL19-T790-C797S, read-out: DEL19-T790-C797S/BaF3 GI50
[23] = BaF3 cells, EGFR L858R, read-out: L858R/BaF3 GI50
[24] = BaF3 cells, EGFR L858R-C797S, read-out: L858R-C797S/BaF3 GI50
[25] = BaF3 cells, EGFR L858R-T790-C797S, read-out: L858R-T790-C797S/BaF3 GI50
[26] = BaF3 cells, EGFR L858R-T790M, read-out: L858R-T790M/BaF3 GI50
[27] = EGFR DEL19-T790M, read-out: DEL19-T790M GI50

T1 sequence (P00533 with tags, fused parts or gaps DEL746-750/C797S limits assumed): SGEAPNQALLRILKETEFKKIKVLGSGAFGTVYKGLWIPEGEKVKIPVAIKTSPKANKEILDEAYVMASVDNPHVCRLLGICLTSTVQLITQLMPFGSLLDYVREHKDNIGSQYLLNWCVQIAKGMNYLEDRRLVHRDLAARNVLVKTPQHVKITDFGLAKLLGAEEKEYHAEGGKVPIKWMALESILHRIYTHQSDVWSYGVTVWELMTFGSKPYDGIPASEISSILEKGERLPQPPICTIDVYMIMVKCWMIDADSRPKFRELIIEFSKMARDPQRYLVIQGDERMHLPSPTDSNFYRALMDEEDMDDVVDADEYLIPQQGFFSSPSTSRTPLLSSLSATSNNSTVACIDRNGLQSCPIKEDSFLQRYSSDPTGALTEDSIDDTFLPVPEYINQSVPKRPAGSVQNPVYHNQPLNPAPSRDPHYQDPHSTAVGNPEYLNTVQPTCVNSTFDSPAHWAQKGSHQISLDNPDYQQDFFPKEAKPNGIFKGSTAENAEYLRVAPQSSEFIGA
T8 sequence (P00533 25-1210 C797S/L858R): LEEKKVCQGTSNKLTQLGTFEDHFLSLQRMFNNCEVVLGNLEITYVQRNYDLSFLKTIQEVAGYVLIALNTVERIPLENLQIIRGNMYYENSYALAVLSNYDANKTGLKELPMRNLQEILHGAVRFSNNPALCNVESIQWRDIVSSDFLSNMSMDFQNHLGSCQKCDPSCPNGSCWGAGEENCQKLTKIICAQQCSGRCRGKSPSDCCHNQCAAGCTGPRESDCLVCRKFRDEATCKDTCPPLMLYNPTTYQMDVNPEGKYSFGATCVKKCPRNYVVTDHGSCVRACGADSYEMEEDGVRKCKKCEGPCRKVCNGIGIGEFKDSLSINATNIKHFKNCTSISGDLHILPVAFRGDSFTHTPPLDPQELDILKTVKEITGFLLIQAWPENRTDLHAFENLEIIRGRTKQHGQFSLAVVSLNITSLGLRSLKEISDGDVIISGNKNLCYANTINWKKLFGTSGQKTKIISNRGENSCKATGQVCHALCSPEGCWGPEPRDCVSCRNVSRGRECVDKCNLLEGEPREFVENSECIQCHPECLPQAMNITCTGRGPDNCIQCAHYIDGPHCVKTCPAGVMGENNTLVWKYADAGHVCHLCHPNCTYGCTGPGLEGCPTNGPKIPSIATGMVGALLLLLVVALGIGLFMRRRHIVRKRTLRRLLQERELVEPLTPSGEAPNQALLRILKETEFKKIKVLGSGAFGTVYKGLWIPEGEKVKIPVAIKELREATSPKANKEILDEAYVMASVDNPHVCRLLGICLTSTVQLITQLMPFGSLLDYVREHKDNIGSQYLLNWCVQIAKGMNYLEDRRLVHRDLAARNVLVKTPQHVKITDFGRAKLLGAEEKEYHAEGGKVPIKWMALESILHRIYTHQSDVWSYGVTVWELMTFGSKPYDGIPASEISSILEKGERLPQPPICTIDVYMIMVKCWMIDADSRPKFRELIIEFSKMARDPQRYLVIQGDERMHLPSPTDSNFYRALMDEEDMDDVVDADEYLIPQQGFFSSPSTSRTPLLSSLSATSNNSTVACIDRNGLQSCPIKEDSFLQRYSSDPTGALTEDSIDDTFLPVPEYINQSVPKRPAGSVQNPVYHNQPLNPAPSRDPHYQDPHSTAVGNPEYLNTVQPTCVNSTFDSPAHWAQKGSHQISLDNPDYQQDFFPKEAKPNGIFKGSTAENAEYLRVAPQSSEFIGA
T9 sequence (P00533 with tags, fused parts or gaps DEL746-750/T790M/C797S limits assumed): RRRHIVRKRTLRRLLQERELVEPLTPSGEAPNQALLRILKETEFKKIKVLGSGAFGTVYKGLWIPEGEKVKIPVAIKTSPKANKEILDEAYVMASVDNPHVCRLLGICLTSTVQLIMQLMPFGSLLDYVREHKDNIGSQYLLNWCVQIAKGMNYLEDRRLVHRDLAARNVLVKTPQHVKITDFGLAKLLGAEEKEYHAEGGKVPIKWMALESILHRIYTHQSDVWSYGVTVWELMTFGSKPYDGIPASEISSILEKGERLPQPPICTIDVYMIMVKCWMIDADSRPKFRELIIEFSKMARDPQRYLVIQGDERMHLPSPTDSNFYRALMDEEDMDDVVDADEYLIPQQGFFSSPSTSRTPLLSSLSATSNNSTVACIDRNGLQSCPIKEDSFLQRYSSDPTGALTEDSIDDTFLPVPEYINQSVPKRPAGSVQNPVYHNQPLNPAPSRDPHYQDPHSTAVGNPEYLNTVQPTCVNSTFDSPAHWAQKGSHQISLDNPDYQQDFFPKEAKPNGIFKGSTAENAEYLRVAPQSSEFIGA
T3 sequence (P00533 25-1210 T790M/C797S/L858R): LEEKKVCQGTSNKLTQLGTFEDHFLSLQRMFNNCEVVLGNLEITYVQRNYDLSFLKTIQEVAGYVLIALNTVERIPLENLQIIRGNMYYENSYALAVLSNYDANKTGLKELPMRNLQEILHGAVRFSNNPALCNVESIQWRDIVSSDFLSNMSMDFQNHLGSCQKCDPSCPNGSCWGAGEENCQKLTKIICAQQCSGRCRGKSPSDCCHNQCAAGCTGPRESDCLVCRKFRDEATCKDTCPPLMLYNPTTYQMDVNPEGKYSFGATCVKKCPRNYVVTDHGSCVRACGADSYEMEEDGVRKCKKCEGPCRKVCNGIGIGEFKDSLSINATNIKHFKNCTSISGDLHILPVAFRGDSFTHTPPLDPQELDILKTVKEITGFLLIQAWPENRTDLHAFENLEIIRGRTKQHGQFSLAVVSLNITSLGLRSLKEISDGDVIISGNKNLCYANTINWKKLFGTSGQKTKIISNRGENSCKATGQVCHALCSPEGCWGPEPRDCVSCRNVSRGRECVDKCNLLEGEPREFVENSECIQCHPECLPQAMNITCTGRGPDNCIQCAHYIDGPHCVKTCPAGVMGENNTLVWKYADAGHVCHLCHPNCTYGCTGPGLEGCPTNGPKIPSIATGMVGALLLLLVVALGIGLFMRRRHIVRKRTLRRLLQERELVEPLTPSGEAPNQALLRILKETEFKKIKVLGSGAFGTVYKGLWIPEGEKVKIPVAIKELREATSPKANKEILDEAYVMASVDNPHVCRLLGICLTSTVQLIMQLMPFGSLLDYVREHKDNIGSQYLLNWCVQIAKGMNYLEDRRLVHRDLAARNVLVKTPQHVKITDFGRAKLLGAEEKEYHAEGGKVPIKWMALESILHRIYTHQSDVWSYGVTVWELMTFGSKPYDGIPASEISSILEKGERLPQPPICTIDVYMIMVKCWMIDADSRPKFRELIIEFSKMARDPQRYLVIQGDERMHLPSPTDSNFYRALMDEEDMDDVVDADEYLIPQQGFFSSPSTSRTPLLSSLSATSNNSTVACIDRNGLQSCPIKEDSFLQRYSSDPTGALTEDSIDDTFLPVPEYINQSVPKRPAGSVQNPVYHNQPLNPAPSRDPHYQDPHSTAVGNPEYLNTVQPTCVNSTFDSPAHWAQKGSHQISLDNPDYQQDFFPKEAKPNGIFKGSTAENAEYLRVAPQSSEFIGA
T4 sequence (P00533 25-1210 L858R): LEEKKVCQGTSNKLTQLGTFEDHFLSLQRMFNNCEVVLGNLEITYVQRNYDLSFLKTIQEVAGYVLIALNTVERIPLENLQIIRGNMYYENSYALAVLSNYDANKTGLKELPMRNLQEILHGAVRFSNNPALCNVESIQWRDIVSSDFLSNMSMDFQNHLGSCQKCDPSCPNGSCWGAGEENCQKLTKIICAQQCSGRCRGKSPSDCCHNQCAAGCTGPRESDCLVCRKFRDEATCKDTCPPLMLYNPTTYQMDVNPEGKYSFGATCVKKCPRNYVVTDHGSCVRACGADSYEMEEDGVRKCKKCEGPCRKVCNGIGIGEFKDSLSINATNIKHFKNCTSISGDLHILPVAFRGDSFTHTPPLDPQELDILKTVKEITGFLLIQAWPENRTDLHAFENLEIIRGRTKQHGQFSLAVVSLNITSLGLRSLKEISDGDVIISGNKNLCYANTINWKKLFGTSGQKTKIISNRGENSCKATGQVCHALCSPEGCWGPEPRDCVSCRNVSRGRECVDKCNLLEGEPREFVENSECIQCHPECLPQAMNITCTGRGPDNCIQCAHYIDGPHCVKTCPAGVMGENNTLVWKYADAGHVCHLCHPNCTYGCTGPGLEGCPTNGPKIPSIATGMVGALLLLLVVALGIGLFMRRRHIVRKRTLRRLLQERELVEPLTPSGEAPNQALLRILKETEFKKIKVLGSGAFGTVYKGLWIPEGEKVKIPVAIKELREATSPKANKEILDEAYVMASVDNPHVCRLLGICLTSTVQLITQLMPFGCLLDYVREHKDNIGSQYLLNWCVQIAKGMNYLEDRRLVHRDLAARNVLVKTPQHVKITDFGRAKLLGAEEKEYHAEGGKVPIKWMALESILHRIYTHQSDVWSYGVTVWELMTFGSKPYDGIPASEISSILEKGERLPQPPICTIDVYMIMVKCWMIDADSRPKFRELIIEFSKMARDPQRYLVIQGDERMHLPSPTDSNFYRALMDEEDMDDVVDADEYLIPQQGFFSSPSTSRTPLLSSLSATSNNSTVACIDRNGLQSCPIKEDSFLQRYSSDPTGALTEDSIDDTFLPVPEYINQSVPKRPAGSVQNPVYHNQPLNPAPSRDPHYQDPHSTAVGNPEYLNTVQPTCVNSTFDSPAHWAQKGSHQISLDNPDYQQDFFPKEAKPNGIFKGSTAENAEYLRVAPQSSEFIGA

Row | Compound | IC50 [1] | IC50 [2] | IC50 [3] | IC50 [4] | GI50 [5, 13] | IC50 [6] | IC50 [7] | GI50 ([8]; Homo sapiens, PC-9, 72 h) | IC50 [9] | GI50 [10, 14] | GI50 [10, 15] | GI50 [10, 16] | GI50 [10, 17] | GI50 [10, 18] | GI50 [10, 19] | GI50 [10, 20] | IC50 [11] | IC50 [12] | GI50 [8] | GI50 [10, 21] | other results
1 | Cn1ncc2c1OCCN1CC(CCC1(C)C)n1c(nc3ccc(N4CCOCC4)cc31)NC(=O)c1cc-2c(=O)n(C)c1 (stereo not drawn) [Example A12, 15,21,27,27-Tetramethyl-5-(morpholin-4-yl)-23-oxa-2,9,11,15,20,21,26-heptaazahexacyclo[24.3.1.1^{13,17}.0^{2,10}.0^{3,8}.0^{18,22}]hentriaconta-3,5,7,9,13,17(31),18(22),19-octaene-12,16-dione] | 119 nM | 476 nM | 486 nM | 482 nM | 3130 nM | > 5000 nM | 89 nM | 149 nM | 144 nM | 39 nM | 265 nM | 72 nM | 159 nM | 122 nM | 116 nM | 197 nM | 389 nM | 105 nM |  |  | 
2 | CCN1CCN(c2ccc3nc4n(c3c2)C23CCC(CN(CCOc5c(cnn5C)-c5cc(cn(C)c5=O)C(=O)N4)C2)C3)CC1 (single isomer, unassigned) [Example A107A] | 245 nM | > 5000 nM | > 5000 nM | 770 nM |  | > 5000 nM | 4500 nM |  | 267 nM |  |  |  |  |  |  |  | 1040 nM | 2860 nM | 238 nM | 66 nM | GI50 ([5]; A-431 cells): 2420 nM; GI50 [10, 22]: 160 nM; GI50 [10, 23]: 240 nM; GI50 [10, 24]: 105 nM; GI50 [10, 25]: 235 nM; GI50 [10, 26]: 332 nM; GI50 [10, 27]: 183 nM
3 | CN1CCC2(CN(c3ccc4nc5n(c4c3)C34CCC(CN(CCOc6c(cnn6C)-c6cc(cn(C)c6=O)C(=O)N5)C3)C4)C2)C(F)(F)C1 (single isomer, unassigned) [Example A91A] | 1650 nM | > 5000 nM | > 5000 nM | 3720 nM | 1180 nM | > 5000 nM | > 5000 nM |  | 740 nM |  |  |  |  |  |  |  | > 5000 nM | > 5000 nM | 1300 nM | 74 nM | GI50 [10, 22]: 146 nM; GI50 [10, 23]: 324 nM; GI50 [10, 24]: 303 nM; GI50 [10, 25]: 366 nM; GI50 [10, 26]: 884 nM; GI50 [10, 27]: 231 nM
4 | CC1CCCCOc2c(cnn2C)-c2cc(cn(C)c2=O)C(=O)Nc2nc3ccc(N4CCN(C)CC4)cc3n21 (stereo not drawn) [Example A19, 5,12,26-Trimethyl-16-(4-methylpiperazin-1-yl)-7-oxa-4,5,13,20,22,26-hexaazapentacyclo[22.3.1.0^{2,6}.0^{13,21}.0^{14,19}]octacosa-1(28),2(6),3,14,16,18,20,24-octaene-23,27-dione] | 19 nM | 632 nM | 214 nM | 625 nM | 1340 nM | > 5000 nM | 29 nM | 856 nM | 22 nM | 6.6 nM | 113 nM | 147 nM | 98 nM | 246 nM | 85 nM | 85 nM | 283 nM | 16 nM |  |  | 
5 | CC(C)N1CCN(c2ccc3nc4n(c3c2)C[C@H](C)CCCOc2c(cnn2C)-c2cc(cn(C)c2=O)C(=O)N4)CC1 [Example A50] | 1.8 nM | 6.7 nM | 4.8 nM | 15 nM | 126 nM | 124 nM | 3.8 nM | 6.3 nM | 2.4 nM | 1 nM | 5.3 nM | 2.7 nM | 2.4 nM | 1.9 nM | 9.5 nM | 7.5 nM | 7.4 nM | 4 nM |  |  | 
6 | C[C@@H]1CCCOc2c(cnn2C)-c2cc(cn(C)c2=O)C(=O)Nc2nc3ccc(N4CCC(N5CCN(C)CC5)CC4)cc3n2C1 [Example A29] | 2.1 nM | 15 nM | 8.9 nM | 14 nM | 247 nM | 109 nM | 7.6 nM | 7.1 nM | 3.8 nM | 0.41 nM | 1 nM | 2.1 nM | 2.8 nM | 0.78 nM | 2.5 nM | 1.9 nM | 7.9 nM | 8.2 nM |  |  | 
7 | CCN1CCN(c2ccc3nc4n(c3c2)C[C@H](C)CCCOc2c(cnn2C)-c2cc(cn(C)c2=O)C(=O)N4)CC1 [Example A49] | 2.8 nM | 8.1 nM | 5.1 nM | 45 nM | 251 nM | 694 nM | 6 nM | 12 nM | 5.5 nM | 2 nM | 12 nM | 5.7 nM | 7 nM | 5.3 nM | 72 nM | 18 nM | 16 nM | 4.9 nM |  |  | 
8 | C[C@@H]1CCCOc2c(cnn2C)-c2cc(cn(C)c2=O)C(=O)Nc2nc3ccc(N(C)CCN(C)C)cc3n2C1 [Example A36] | 2.1 nM | 8 nM | 4.9 nM | 30 nM | 591 nM | 193 nM | 2.5 nM | 14 nM | 3 nM | 2.1 nM | 6 nM | 5.1 nM | 5.9 nM | 4.7 nM | 23 nM | 7.8 nM | 14 nM | 2.4 nM |  |  | 
9 | Cn1ncc2c1OCCN1CC3CCC(C3)(C1)n1c(nc3ccc(N4CCN(C5COC5)CC4)cc31)NC(=O)c1cc-2c(=O)n(C)c1 (single isomer, unassigned) [Example A71B] | 1.3 nM | 2.8 nM | 2.9 nM | 14 nM |  | 319 nM | 2.5 nM |  | 1.8 nM |  |  |  |  |  |  |  | 20 nM | 2.4 nM | 6.6 nM | 0.66 nM | GI50 ([5]; A-431 cells): 830 nM; GI50 [10, 22]: 2 nM; GI50 [10, 23]: 2.9 nM; GI50 [10, 24]: 4.2 nM; GI50 [10, 25]: 2.2 nM; GI50 [10, 26]: 8 nM; GI50 [10, 27]: 1.9 nM
